Assay results as given in patent US11352322B2, “Cyclopropyl-amide compounds as dual LSD1/HDAC inhibitors” (Jubilant Epicore LLC, priority 2016, dated 2022).
Structures can show the parent of a compound that is named as a salt. Where two headings read alike, the source gives them in different places.

Experiments:
MDAMB231 = test: cells; conditions: Homo sapiens, MDA-MB-231, 144 h, read-out: Anticancer profileration EC50 MDAMB231
Method: (§1) Anticancer Activity: Alamar Blue Assay
(§2) Cells were seeded at 5000 cells/per well in 96-well tissue culture plate and incubated at 37° C./5% CO2. After 16-24 hours, fresh media was added to the wells. Compounds were then (1% DMSO conc.) added to the cells at 10 concentrations ranging from 10-0.0005 uM prepared in 3-fold serial dilutions. […] Alamar Blue™ reagent was added and incubated for 1-3 hours at 37° C./5% CO2. Plates were read on fluorescence reader at 540 nm excitation, 590 nm emission wave lengths.
(§3) As described above, compounds were tested for anticancer activities in different tumor cell lines and GI50 were determined.

OCI-AML3 = test: cells; conditions: Homo sapiens, OCI-AML-3, 144 h, read-out: Anticancer profileration EC50 OCI-AML3
Method: as §1, §2, §3

MV-4-11 = test: cells; conditions: Homo sapiens, MV4-11, 144 h, read-out: Anticancer profileration EC50 MV-4-11
Method: as §1, §2, §3

A375 = test: cells; conditions: Homo sapiens, A-375, 144 h, read-out: Anticancer profileration EC50 A375
Method: as §1, §2, §3

HEL-92.1.7 = test: cells; conditions: Homo sapiens, HEL 92.1.7, 144 h, read-out: Anticancer profileration EC50 HEL-92.1.7
Method: as §1, §2, §3

CCRF-CEM = test: cells; conditions: Homo sapiens, 144 h, read-out: Anticancer profileration EC50 CCRF-CEM
Method: as §1
Cells were seeded at 5000 cells/per well in 96-well tissue culture plate and incubated at 37° C./5% CO2. After 16-24 hours, fresh media was added to the wells. Compounds were then (1% DMSO conc.) added to the cells at 10 concentrations ranging from 10-0.0005 uM prepared in 3-fold serial dilutions. Cells were incubated for 68-72 h at 37° C./5% CO2. Alamar Blue™ reagent was added and incubated for 1-3 hours at 37° C./5% CO2. Plates were read on fluorescence reader at 540 nm excitation, 590 nm emission wave lengths.
as §3

MM1S = test: Anticancer activity: Alamar Blue assay, MM1S; assay type: cell-based; conditions: Homo sapiens, MM1.S, read-out: MM1S EC50
[1] = Metabolic stability in liver microsomes, HLM; conditions: 1 μM, NADPH
Method: (§4) The microsomal suspension was prepared by adding liver microsomes to 100 mM potassium phosphate buffer (pH7.4) to give a final protein concentration of 0.5 mg/mL. The stock solution of NCE (10 mM in DMSO) was added to the microsomes to provide a final concentration of 1 μM. […] Samples were vortexed and centrifuged at 5,000 rpm for 10 min to remove proteins. Supernatant were analyzed on LC-MS/MS.

LSD1 = LSD1 (Homo sapiens (Human), UniProt O60341); test: TR-FRET Assay for LSD1; conditions: read-out: LSD1 IC50
Method: TR-FRET Assay for LSD1 (Perkin Elmer)
Tranylcypromine (TCP), LSD1 inhibitor was procured from Selleckchem. […] Stop Solution containing 300 μM tranylcypromine in 1× LANCE Detection Buffer was added to the wells and incubated for 5 min at RT. Then, Detection mix containing 2 nM Eu-Ab and 50 nM ULight-Streptavidin in 1× LANCE Detection Buffer was prepared and added to the reaction mix. This mixture was incubated for 1 hour at room temperature.

[2] = Metabolic stability in liver microsomes, MLM; conditions: 1 μM, NADPH
Method: as §4

[3] = molecular target: HDAC6 human recombinant enzyme (Homo sapiens (Human), UniProt Q9UBN7); test: Histone Deacetylase Assay (BPS Biosciences), HDAC6; assay type: biochemical
From the text: Histone Deacetylase Assay (BPS Biosciences)
Histone deacetylase assay was done as per manufacturer's instructions.

[4] = mouse, microsomes, 0.5 h, pH 7.4
Method: as §4

[5] = human, microsomes, 0.5 h, pH 7.4
Method: as §4

HDAC6 human recombinant enzyme, sequence (Q9UBN7 whole entry): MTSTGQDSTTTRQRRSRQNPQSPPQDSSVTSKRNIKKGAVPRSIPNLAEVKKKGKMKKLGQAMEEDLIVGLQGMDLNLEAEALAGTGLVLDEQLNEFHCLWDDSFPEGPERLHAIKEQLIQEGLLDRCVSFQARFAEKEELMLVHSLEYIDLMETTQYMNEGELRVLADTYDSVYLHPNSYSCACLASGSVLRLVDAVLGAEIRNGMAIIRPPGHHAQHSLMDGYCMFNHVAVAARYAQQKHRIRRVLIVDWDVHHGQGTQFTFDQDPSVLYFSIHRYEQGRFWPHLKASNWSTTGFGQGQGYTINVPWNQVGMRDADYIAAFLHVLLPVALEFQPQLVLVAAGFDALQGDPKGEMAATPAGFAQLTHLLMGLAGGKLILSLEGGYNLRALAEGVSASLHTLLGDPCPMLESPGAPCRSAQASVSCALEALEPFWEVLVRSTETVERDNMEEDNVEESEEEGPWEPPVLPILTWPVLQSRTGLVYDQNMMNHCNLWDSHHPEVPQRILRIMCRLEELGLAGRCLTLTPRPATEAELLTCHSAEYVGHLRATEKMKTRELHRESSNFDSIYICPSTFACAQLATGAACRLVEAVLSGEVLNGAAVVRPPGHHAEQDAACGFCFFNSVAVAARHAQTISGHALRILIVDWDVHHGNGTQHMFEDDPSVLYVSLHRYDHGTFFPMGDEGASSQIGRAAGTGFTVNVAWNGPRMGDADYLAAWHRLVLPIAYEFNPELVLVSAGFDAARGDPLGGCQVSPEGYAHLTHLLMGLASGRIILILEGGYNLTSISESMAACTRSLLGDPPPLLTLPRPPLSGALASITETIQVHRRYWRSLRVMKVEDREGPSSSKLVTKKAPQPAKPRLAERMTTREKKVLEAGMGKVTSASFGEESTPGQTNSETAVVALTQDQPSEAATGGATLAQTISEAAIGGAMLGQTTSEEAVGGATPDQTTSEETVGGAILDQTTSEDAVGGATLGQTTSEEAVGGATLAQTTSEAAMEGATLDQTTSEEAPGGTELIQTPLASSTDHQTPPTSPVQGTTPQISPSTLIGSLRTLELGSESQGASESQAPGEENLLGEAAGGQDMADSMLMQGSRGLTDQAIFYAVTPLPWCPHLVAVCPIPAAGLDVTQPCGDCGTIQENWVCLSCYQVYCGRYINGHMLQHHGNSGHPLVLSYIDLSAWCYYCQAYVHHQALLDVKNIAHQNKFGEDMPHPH

Row | SMILES | EC50 (MDAMB231) [nM] | EC50 (OCI-AML3) [nM] | EC50 (MV-4-11) [nM] | EC50 (A375) [nM] | EC50 (HEL-92.1.7) [nM] | EC50 (CCRF-CEM) [nM] | EC50 (MM1S) [nM] | Metabolic stability HLM % remaining in 30 min [1] [%] | IC50 (LSD1) [nM] | Metabolic stability MLM % remaining in 30 min [2] [%] | IC50 [3] [nM] | Metabolic stability MLM % remaining in 30 min [4] | EC50 (MM1S; MM1S cells) [nM] | Metabolic stability HLM % remaining in 30 min [5]
1 | O=C(/C=C/c1ccc(CNC2CC2c2ccc(-c3ccc(Cl)cc3)cc2)cc1)NO (stereo not shown) [Example 5, (E)-3-(4-(((2-(4′-chloro-[1,1′-biphenyl]-4-yl)cyclopropyl)amino)methyl)phenyl)-N-hydroxyacrylamide TFA Salt] | 1600 | 146 | 54 | 2300 | 26 | 533 | 88 | 86 | 49 | 59 |  |  |  | 
2 | O=C(NO)c1cnc(N2CCC(NC3CC3c3ccc(OCc4ccc(F)cc4)cc3)CC2)nc1 (stereo not shown) [Example 12, 2-(4-((2-(4-((4-fluorobenzyl)oxy)phenyl)cyclopropyl)amino)piperidin-1-yl)-N-hydroxypyrimidine-5-carboxamide TFA Salt] | 1300 | 41 | 9 | 2800 | 4 | 375 | 11 | 95 |  | 85 |  |  |  | 
3 | O=C(NO)c1ccc(CCCN2CCn3cc(CNC4CC4c4ccc(F)cc4)nc3C2)cc1 (stereo not shown) [Example 72, 4-(3-(2-(((2-(4-fluorophenyl)cyclopropyl)amino)methyl)-5,6-dihydroimidazo[1,2-a]pyrazin-7(8H)-yl)propyl)-N-hydroxybenzamide TFA Salt] |  | 573 | 978 |  | 4800 |  | 343 | 67 | 730 | < 5 | 18 |  |  | 
4 | O=C(NO)c1ccc(CCCN2CCC(CNC3CC3c3ccc(F)cc3)CC2)cc1 (stereo not shown) [Example 47, 4-[3-(4-{[2-(4-Fluoro-phenyl)-cyclopropylamino]-methyl}-piperidin-1-yl)-propyl]-N-hydroxy-benzamide TFA Salt] | 875 | 146 | 5 | 3600 | 5 | 1400 |  | 54 | 6 | 66 | 51 |  |  | 
5 | O=C(NO)c1ccc(CCCN2CCC(CNC3CC3c3ccc(OCc4ccc(F)cc4)cc3)CC2)cc1 (stereo not shown) [Example 52, 4-(3-(4-(((2-(4-((4-fluorobenzyl)oxy)phenyl)cyclopropyl)amino)methyl)piperidin-1-yl)propyl)-N-hydroxybenzamide TFA Salt] | 891 | 22 | 1 | 1700 | 5 | 371 |  | 79 | 4 | 56 | 12 |  |  | 
6 | O=C(NO)c1ccc(CCCN2CCC(CNC3CC3c3ccccc3)CC2)cc1 (stereo not shown) [Example 43, N-hydroxy-4-(3-(4-(((2-phenylcyclopropyl)amino)methyl)piperidin-1-yl)propyl)benzamide TFA Salt] | 747 | 115 | 2 | 1030 | 1 | 493 |  | 40 |  | 56 |  |  |  | 
7 | O=C(NO)c1cnc(N2CCC(CNC3CC3c3ccc(F)cc3)CC2)nc1 (stereo not shown) [Example 8, 2-(4-(((2-(4-fluorophenyl)cyclopropyl)amino)methyl)piperidin-1-yl)-N-hydroxypyrimidine-5-carboxamide TFA Salt] | 193 | 46 | 48 | 698 | 42 | 119 | 7 | 88 |  | 52 | 88 |  |  | 
8 | O=C(NO)c1ccc(CCCN2CC3(CC(NC4CC4c4ccccc4)C3)C2)cc1 (stereo not shown) [Example 46, N-hydroxy-4-(3-(6-((2-phenylcyclopropyl)amino)-2-azaspiro[3.3]heptan-2-1)propyl)benzamide TFA Salt] |  |  |  |  |  |  |  |  | 26 |  | 477 | 54/47% | 71 | 54/47%
